Results taken from patent publication US4636563A, “Antipsychotic γ-carbolines” (American Home Products Corporation, priority 1985, dated 1987).

Experiments:
[1] = test system: conditioned avoidance responding (shelf-jump); experiment: Conditioned avoidance, shelf-jump response (S-J); type: in vivo, male CD rats
Description: (§1) The antipsychotic properties of the compounds of this invention were established by standard pharmacologically accepted procedures involving two conditioned avoidance studies in which trained male CD rats (Charles River), 400-450 gm body weight are exposed to a fifteen second warning tone (conditioned stimulus) continued for an additional fifteen seconds accompanied by electric shock. The rat can avoid the electric shock by depression of a response lever (lever-response) or in a different study by jumping to an exposed shelf (shelf-jump response). In either test situation, a response during the initial warning tone is considered an avoidance response while a response during shock delivery is considered an escape response. The avoidance response is determined and expressed as a percentage of total trials from an appropriate number of trials and a 50% block in avoidance responding (AB50) is obtained from a dose-effect regression line. The shelf-jump response test procedure follows that of Herman et al., Comm. in Psychopharm., 3, pp. 165-171 (1979).
(§2) The following examples illustrate the production of compounds of this invention. After each example the pharmacological evaluation for the compound produced is presented. The conditioned avoidance tests are reported as relative activity for the shelf-jump (S-J) at the intraperitoneal (i.p.) dose administered in mg/kg and the AB50 is presented for the lever-response (L-R) test at the oral (p.o.) dose in mg/kg. The inhibition constant is reported for limbic D-2 binding expressed in nM concentration. Similarly, the inhibition constant for cortical 5-HT2 binding is reported as the inhibition constant in nM concentration.

[2] = test system: conditioned avoidance responding (lever-response); experiment: Conditioned avoidance, lever-response (L-R); type: in vivo, male CD rats; conditions: Rattus norvegicus, po; 95% confidence interval in brackets; read-out: L-R AB50 (50% block in avoidance responding)
Description: as §1, §2

[3] = biological target: T1, limbic D-2 (dopamine receptor) (Rattus norvegicus, UniProt P61169); experiment: Limbic D-2 binding (3H-spiroperidol, homogenized limbic brain tissue); conditions: 95% confidence interval in brackets, read-out: Limbic D-2 inhibition constant (Ki)
T1 construct: from tissue; host or cells: homogenized limbic brain tissue
Experimental: Binding in the presence of the test compound is expressed as a percent of specific binding (total binding less binding in the presence of 1 μM (+)butaclamol). An inhibition constant (Ki) is calculated for each test compound to catagorize its limbic D-2 binding potential. The larger the number, the less potential for dopamine receptor binding and attendant side effects from administration of the antipsychotic agent.
as §2

serotonin-2 receptors = biological target: T2, serotonin-2 receptors (Rattus norvegicus, UniProt P14842); experiment: Cortical 5-HT2 binding (brain cortical tissue); conditions: for Ki: 95% confidence interval in brackets, read-out: Cortical 5-HT2 inhibition constant (Ki)
T2 construct: In an analogous test procedure employing brain cortical tissue; from tissue; host or cells: brain cortical tissue
Description: as §2

T2 sequence (P14842 whole entry): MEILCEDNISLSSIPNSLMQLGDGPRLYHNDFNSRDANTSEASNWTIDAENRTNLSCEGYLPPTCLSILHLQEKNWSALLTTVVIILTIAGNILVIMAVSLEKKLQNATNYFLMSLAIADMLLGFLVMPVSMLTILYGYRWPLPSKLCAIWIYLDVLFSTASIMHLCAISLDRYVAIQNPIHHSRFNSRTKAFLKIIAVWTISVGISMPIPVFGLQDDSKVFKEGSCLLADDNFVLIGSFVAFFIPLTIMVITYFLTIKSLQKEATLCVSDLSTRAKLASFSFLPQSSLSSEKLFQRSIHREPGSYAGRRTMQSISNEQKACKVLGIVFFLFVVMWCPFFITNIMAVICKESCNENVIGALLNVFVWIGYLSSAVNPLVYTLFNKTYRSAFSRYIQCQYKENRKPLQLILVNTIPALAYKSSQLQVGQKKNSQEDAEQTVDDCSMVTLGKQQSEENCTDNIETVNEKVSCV
T1 sequence (P61169 whole entry): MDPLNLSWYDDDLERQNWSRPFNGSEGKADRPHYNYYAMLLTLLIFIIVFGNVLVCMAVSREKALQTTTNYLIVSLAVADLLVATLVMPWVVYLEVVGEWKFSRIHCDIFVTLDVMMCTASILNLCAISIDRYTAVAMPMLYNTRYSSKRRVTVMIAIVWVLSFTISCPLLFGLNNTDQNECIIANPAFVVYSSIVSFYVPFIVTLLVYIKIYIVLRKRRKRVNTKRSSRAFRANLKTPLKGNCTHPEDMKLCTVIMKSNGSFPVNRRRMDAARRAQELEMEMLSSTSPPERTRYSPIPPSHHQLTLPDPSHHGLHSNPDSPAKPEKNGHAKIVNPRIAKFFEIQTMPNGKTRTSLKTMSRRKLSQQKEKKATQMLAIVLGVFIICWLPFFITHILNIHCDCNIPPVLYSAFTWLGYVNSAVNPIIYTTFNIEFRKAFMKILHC

Clc1ccc2[nH]c3c(c2c1)CN(CCCc1ccccn1)CC3 [Example 12, 8-Chloro-2,3,4,5-tetrahydro-2-[3-(2-pyridinyl)-propyl]-1H-pyrido[4,3-b]indole]
S-J relative activity ([1]; 40 mg/kg i.p.): Active
ED50 [2]: > 40 mg/kg
Ki [3]: 126 nM
Ki (serotonin-2 receptors): 28 nM

Clc1ccc2[nH]c3c(c2c1)CN(CCc1ccc2ccccc2n1)CC3 [Example 10, 8-Chloro-2,3,4,5-tetrahydro-2-[2-(2-quinolinyl)ethyl]-1H-pyrido-[4,3-b]indole]
S-J relative activity ([1]; 40 mg/kg i.p.): Active
ED50 [2]: > 40 mg/kg
Ki [3]: 82 nM

NCCc1ccc(O)c(O)c1 [dopamine, reference compound]
Ki at serotonin-2 receptors (serotonin-2 receptors; reference ligands): inactive

Clc1ccc2[nH]c3c(c2c1)CN(CCc1ccccn1)CC3 [Example 9, 8-Chloro-2,3,4,5-tetrahydro-2-[2-(2-pyridinyl)ethyl]-1H-pyrido[4,3-b]indole]
S-J relative activity ([1]; 40 mg/kg i.p.): Active
ED50 [2]: > 40 mg/kg

c1ccc2c3c([nH]c2c1)CCN(CCCCc1ccncc1)C3 [Example 6, 2,3,4,5-Tetrahydro-2-[4-(4-pyridinyl)butyl]-1H-pyrido[4,3-b]indole]
S-J relative activity ([1]; 20 mg/kg i.p.): Active
S-J relative activity ([1]; 40 mg/kg i.p.): Active
ED50 [2]: > 20 mg/kg

Fc1ccc2[nH]c3c(c2c1)CN(CCCCc1ccncc1)CC3 [Example 1, 8-Fluoro-2,3,4,5-tetrahydro-2-[4-(4-pyridinyl)butyl]-1H-pyrido[4,3-b]-indole]
S-J relative activity ([1]; 20 mg/kg i.p.): Active
ED50 [2]: 15.1 mg/kg
Ki [3]: 143 nM
Ki (serotonin-2 receptors): 480 nM

c1cncc(CCCN2CCc3[nH]c4ccccc4c3C2)c1 [Example 7, 2,3,4,5-Tetrahydro-2-[3-(3-pyridinyl)propyl]-1H-pyrido[4,3-b]indole]
S-J relative activity ([1]; 40 mg/kg i.p.): Active
ED50 [2]: 33.1 mg/kg
Ki (serotonin-2 receptors): 252 nM

Fc1ccc2[nH]c3c(c2c1)CN(CCc1ccncc1)CC3 [Example 3, 8-Fluoro-2,3,4,5-tetrahydro-2-[2-(4-pyridinyl)ethyl]1H-pyrido[4,3-b]indole]
Ki (serotonin-2 receptors): 211 nM

Fc1ccc2[nH]c3c(c2c1)CN(CCc1ccccn1)CC3 [Example 2, 8-Fluoro-2,3,4,5-tetrahydro-2-[2-(2-pyridinyl)ethyl]-1H-pyrido[4,3-b]indole]
S-J relative activity ([1]; 20 mg/kg i.p.): Active
ED50 [2]: 37.6 mg/kg
Ki [3]: 26 nM
Ki (serotonin-2 receptors): 173 nM

Fc1ccc2[nH]c3c(c2c1)CN(CCCc1cccnc1)CC3 [Example 11, 8-Fluoro-2,3,4,5-tetrahydro-2-[3-(3-pyridinyl)propyl]1H-pyrido[4,3-b]indole]
S-J relative activity ([1]; 20 mg/kg i.p.): Active
ED50 [2]: 14.4 mg/kg
Ki [3]: 395 nM
Ki (serotonin-2 receptors): 136 nM

c1ccc2nc(CCN3CCc4[nH]c5ccccc5c4C3)ccc2c1 [Example 5, 2,3,4,5-Tetrahydro-2-[2-(2-quinolinyl)ethyl]-1H-pyrido[4,3-b]indole]
S-J relative activity ([1]; 40 mg/kg i.p.): Active

Clc1ccc2[nH]c3c(c2c1)CN(CCCCc1ccncc1)CC3 [Example 8, 8-Chloro-2,3,4,5-tetrahydro-2-[4-(4-pyridinyl)butyl]-1H-pyrido[4,3-b]indole]
S-J relative activity ([1]; 40 mg/kg i.p.): Active
ED50 [2]: 36.1 mg/kg
Ki [3]: 106 nM
Ki (serotonin-2 receptors): 60 nM

Fc1ccc2[nH]c3c(c2c1)CN(CCc1ccc2ccccc2n1)CC3 [Example 4, 8-Fluoro-2,3,4,5-tetrahydro-2-[2-(2-quinolinyl)ethyl]-1H-pyrido[4-3-b]indole]
S-J relative activity ([1]; 20 mg/kg i.p.): Active
Ki [3]: 185 nM
